Source: patent publication US20250034210A1, “DLL3 TARGETING PEPTIDES AND CONSTRUCTS THEREOF” (MARIANA ONCOLOGY INC., priority 2023, published 2025)
*1 amine or outer side, *2 acyl side, *3 side chain or, on linkers, in order; H or OH if unused. Where a SMILES comes first, the peptide text is derived from it. Bridges are numbered along the chain shown (N, C = ends). [ ]: non-standard residue; d: D form. The star is where a group is joined. ξ: configuration not given here. X2 = O=C(O)CN1CCN(CC(=O)O)CCN(CC(=O)NCCCOCCOCCOCCCN*)CCN(CC(=O)O)CC1; DOTA = O=C(O)CN1CCN(CC(=O)O)CCN(CC(=O)*)CCN(CC(=O)O)CC1; Trp(5-F) = N[C@@H](Cc1c[nH]c2ccc(F)cc12)C(=O)O; Pro(trans-4-F) = O=C(O)[C@@H]1C[C@@H](F)CN1; PEG8 = NCCOCCOCCOCCOCCOCCOCCOCCOCCC(=O)O; Pro(cis-4-F) = O=C(O)[C@@H]1C[C@H](F)CN1; X1 = O=C(C[C@H]1CC[C@H](N[*:1])CC1)[*:2]; Pro(4R-NH2) = N[C@H]1CN[C@H](C(=O)O)C1; 2Nal = N[C@@H](Cc1ccc2ccccc2c1)C(=O)O; cisHyp = O=C(O)[C@@H]1C[C@H](O)CN1; Suc = O=C(CCC(=O)[*:2])[*:1]; ξIle = CC[C@H](C)C(N)C(=O)O; Pip = O=C(O)[C@@H]1CCCCN1; Ahx = NCCCCCC(=O)O

Each compound was assayed against T1, human DLL3 (Homo sapiens, UniProt Q9NYJ7) (assay: Affinity determination by Surface Plasmon Resonance (SPR), biotinylated human DLL3 immobilized on streptavidin sensor chip). Details: 25° C., Biacore, 1:1 binding model.
T1 construct: biotin (biotinylated)
T1 sequence (Q9NYJ7 27-618): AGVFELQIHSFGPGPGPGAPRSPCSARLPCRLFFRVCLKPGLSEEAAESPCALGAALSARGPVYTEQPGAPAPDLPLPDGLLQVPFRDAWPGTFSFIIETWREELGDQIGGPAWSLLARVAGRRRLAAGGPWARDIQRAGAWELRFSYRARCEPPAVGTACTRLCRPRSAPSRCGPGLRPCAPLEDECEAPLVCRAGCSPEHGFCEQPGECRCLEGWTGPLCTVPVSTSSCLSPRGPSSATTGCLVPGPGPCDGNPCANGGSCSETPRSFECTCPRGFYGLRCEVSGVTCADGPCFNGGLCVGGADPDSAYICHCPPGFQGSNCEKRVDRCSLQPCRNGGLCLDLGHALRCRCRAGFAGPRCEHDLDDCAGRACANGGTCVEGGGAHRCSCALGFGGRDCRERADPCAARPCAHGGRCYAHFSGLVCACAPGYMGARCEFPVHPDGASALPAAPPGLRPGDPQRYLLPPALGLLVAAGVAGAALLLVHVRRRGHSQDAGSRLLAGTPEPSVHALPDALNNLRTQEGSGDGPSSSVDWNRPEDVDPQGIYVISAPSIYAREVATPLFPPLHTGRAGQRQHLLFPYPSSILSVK
Procedure: Affinity Determination by Surface Plasmon Resonance (SPR). SPR studies were performed on the compounds disclosed herein using the following protocol.
The binding affinity and binding kinetic parameters at 25° C. were determined using Biacore S200 or biacore 8K instrument. Biotinylated target ligand human DLL3 was immobilized on a streptavidin sensor chip. A reference surface was set up for nonspecific binding and refractive index changes. For analysis of the kinetics of interactions, varying concentrations of samples were injected at a flow rate of 100 μL/min using running buffer containing 20 mM phosphate buffer with 2.7 mM KCl, 137 mM NaCl, 0.05% Surfactant P20 and 2% DMSO. Sensorgram curves were fitted with 1:1 binding model, and affinity and kinetic parameters were obtained using Biacore Insight evaluation 4.0. software.
CC[C@H](C)[C@H](NC(=O)[C@@H](NC(=O)[C@H](Cc1c[nH]c2ccc(F)cc12)NC(=O)CCCCCNC(=O)CN1CCN(CC(=O)O)CCN(CC(=O)O)CCN(CC(=O)O)CC1)[C@@H](C)O)C(=O)N[C@H]1CSSC[C@@H](C(=O)N[C@@H](Cc2c[nH]c3ccccc23)C(=O)N2CCC[C@H]2C(N)=O)NC(=O)[C@H](CC(=O)O)NC(=O)[C@H](Cc2cnc[nH]2)NC(=O)[C@H](Cc2c[nH]c3ccccc23)NC(=O)[C@H](CC(N)=O)NC(=O)[C@H](CC(N)=O)NC1=O [compound 58, DOTA-Ahx-(5Fluoro-W)-T-I-C(3)-N-N-W-H-D-C(3)-W-P-CONH2] ({DOTA-Ahx}-[Trp(5-F)]TICNNWHDCWP-NH2; disulfide 4-10) gave a Kd of 1 to 10 nM.
Compound CC[C@H](C)[C@H](NC(=O)[C@@H](NC(=O)[C@H](Cc1c[nH]c2ccccc12)NC(=O)C[C@H]1CC[C@H](NC(=O)CN2CCN(CC(=O)O)CCN(CC(=O)O)CCN(CC(=O)O)CC2)CC1)[C@@H](C)O)C(=O)N[C@H]1CSSC[C@@H](C(=O)N[C@@H](Cc2c[nH]c3ccccc23)C(=O)N2CCC[C@H]2C(N)=O)NC(=O)[C@H](CC(=O)O)NC(=O)[C@H](Cc2cnc[nH]2)NC(=O)[C@H](Cc2c[nH]c3ccccc23)NC(=O)[C@H](CC(N)=O)NC(=O)[C@H](CC(N)=O)NC1=O [compound 19, DOTA-CyHex-W-T-I-C(3)-N-N-W-H-D-C(3)-W-P-CONH2] ({DOTA}-[X1]WTICNNWHDCWP-NH2; disulfide 5-11) has a Kd of 10 to 100 nM.
With CC[C@H](C)[C@H](NC(=O)[C@@H](NC(=O)[C@H](Cc1c[nH]c2ccccc12)NC(=O)CCCCCNC(=O)CN1CCN(CC(=O)O)CCN(CC(=O)O)CCN(CC(=O)O)CC1)[C@@H](C)O)C(=O)N[C@H]1CSSC[C@@H](C(=O)N[C@@H](Cc2c[nH]c3ccccc23)C(=O)N2C[C@@H](O)C[C@H]2C(N)=O)NC(=O)[C@H](CC(=O)O)NC(=O)[C@H](Cc2cnc[nH]2)NC(=O)[C@H](Cc2c[nH]c3ccccc23)NC(=O)[C@H](CC(N)=O)NC(=O)[C@H](CC(N)=O)NC1=O [compound 69, DOTA-Ahx-W-T-I-C(3)-N-N-W-H-D-C(3)-W-(cis4OH-P)-CONH2] ({DOTA-Ahx}-WTICNNWHDCW[cisHyp]-NH2; disulfide 4-10) the Kd was 100 to 300 nM.
Work on CC[C@H](C)[C@H](NC(=O)[C@@H](NC(=O)[C@H](Cc1c[nH]c2ccccc12)NC(=O)CCCCCNC(=O)CN1CCN(CC(=O)O)CCN(CC(=O)O)CCN(CC(=O)O)CC1)[C@@H](C)O)C(=O)N[C@H]1CSSC[C@@H](C(=O)N[C@@H](Cc2c[nH]c3ccccc23)C(=O)N2CCCC[C@H]2C(N)=O)NC(=O)[C@H](CC(=O)O)NC(=O)[C@H](Cc2cnc[nH]2)NC(=O)[C@H](Cc2c[nH]c3ccccc23)NC(=O)[C@H](CC(N)=O)NC(=O)[C@H](CC(N)=O)NC1=O [compound 70, DOTA-Ahx-W-T-I-C(3)-N-N-W-H-D-C(3)-W-(Pip)-CONH2] ({DOTA-Ahx}-WTICNNWHDCW[Pip]-NH2; disulfide 4-10) yielded a Kd of 10 to 100 nM.
Compound CC[C@H](C)[C@H](NC(=O)[C@@H](NC(=O)[C@H](Cc1c[nH]c2ccccc12)NC(=O)CCCCCNC(=O)CN1CCN(CC(=O)O)CCN(CC(=O)O)CCN(CC(=O)O)CC1)[C@@H](C)O)C(=O)N[C@H]1CSSC[C@@H](C(=O)N[C@@H](Cc2c[nH]c3ccccc23)C(=O)N2C[C@H](F)C[C@H]2C(N)=O)NC(=O)[C@H](CC(=O)O)NC(=O)[C@H](Cc2cnc[nH]2)NC(=O)[C@H](Cc2c[nH]c3ccccc23)NC(=O)[C@H](CC(N)=O)NC(=O)[C@H](CC(N)=O)NC1=O [compound 66, DOTA-Ahx-W-T-I-C(3)-N-N-W-H-D-C(3)-W-(trans4Fluoro-P)-CONH2] ({DOTA-Ahx}-WTICNNWHDCW[Pro(trans-4-F)]-NH2; disulfide 4-10) has a Kd of 1 to 10 nM.
CC[C@H](C)[C@H](NC(=O)[C@@H](NC(=O)[C@H](Cc1c[nH]c2ccccc12)NC(=O)CCCCCNC(=O)CN1CCN(CC(=O)O)CCN(CC(=O)O)CCN(CC(=O)O)CC1)[C@@H](C)O)C(=O)N[C@H]1CSSC[C@@H](C(=O)N[C@@H](Cc2c[nH]c3ccccc23)C(=O)N2C[C@H](N)C[C@H]2C(N)=O)NC(=O)[C@H](CC(=O)O)NC(=O)[C@H](Cc2cnc[nH]2)NC(=O)[C@H](Cc2c[nH]c3ccccc23)NC(=O)[C@H](CC(N)=O)NC(=O)[C@H](CC(N)=O)NC1=O [compound 224, DOTA-Ahx-W-T-I-C(3)-N-N-W-H-D-C(3)-W-(trans4NH2-P)-CONH2] ({DOTA-Ahx}-WTICNNWHDCW[Pro(4R-NH2)]-NH2; disulfide 4-10) showed a Kd of 10 to 100 nM.
Work on CC[C@H](C)[C@H](NC(=O)[C@@H](NC(=O)[C@H](Cc1c[nH]c2ccccc12)NC(=O)CCOCCOCCOCCOCCOCCOCCOCCOCCNC(=O)CN1CCN(CC(=O)O)CCN(CC(=O)O)CCN(CC(=O)O)CC1)[C@@H](C)O)C(=O)N[C@H]1CSSC[C@@H](C(=O)N[C@@H](Cc2c[nH]c3ccccc23)C(=O)N2CCC[C@H]2C(N)=O)NC(=O)[C@H](CC(=O)O)NC(=O)[C@H](Cc2cnc[nH]2)NC(=O)[C@H](Cc2c[nH]c3ccccc23)NC(=O)[C@H](CC(N)=O)NC(=O)[C@H](CC(N)=O)NC1=O [compound 20, DOTA-PEG8-W-T-I-C(3)-N-N-W-H-D-C(3)-W-P-CONH2] ({DOTA-PEG8}-WTICNNWHDCWP-NH2; disulfide 4-10) yielded a Kd of 10 to 100 nM.
With CC[C@H](C)[C@H](NC(=O)[C@@H](NC(=O)[C@H](Cc1c[nH]c2ccccc12)NC(=O)CCCCCNC(=O)CN1CCN(CC(=O)O)CCN(CC(=O)O)CCN(CC(=O)O)CC1)[C@@H](C)O)C(=O)N[C@H]1CSSC[C@@H](C(=O)N[C@@H](Cc2c[nH]c3ccc(F)cc23)C(=O)N2CCC[C@H]2C(N)=O)NC(=O)[C@H](CC(=O)O)NC(=O)[C@H](Cc2cnc[nH]2)NC(=O)[C@H](Cc2c[nH]c3ccccc23)NC(=O)[C@H](CC(N)=O)NC(=O)[C@H](CC(N)=O)NC1=O [compound 60, DOTA-Ahx-W-T-I-C(3)-N-N-W-H-D-C(3)-(5Fluoro-W)-P-CONH2] ({DOTA-Ahx}-WTICNNWHDC[Trp(5-F)]P-NH2; disulfide 4-10) the Kd was 10 to 100 nM.
CC[C@H](C)C(NC(=O)[C@@H](NC(=O)[C@H](Cc1c[nH]c2ccccc12)NC(=O)CCCCCNC(=O)CN1CCN(CC(=O)O)CCN(CC(=O)O)CCN(CC(=O)O)CC1)[C@@H](C)O)C(=O)N[C@H]1CSSC[C@@H](C(=O)N[C@@H](Cc2ccc3ccccc3c2)C(=O)N2CCC[C@H]2C(N)=O)NC(=O)[C@H](CC(=O)O)NC(=O)[C@H](Cc2cnc[nH]2)NC(=O)[C@H](Cc2c[nH]c3ccccc23)NC(=O)[C@H](CC(N)=O)NC(=O)[C@H](CC(N)=O)NC1=O (stereo partly drawn) [compound 55, DOTA-Ahx-W-T-I-C(3)-N-N-W-H-D-C(3)-(2Nal)-P-CONH2] ({DOTA-Ahx}-WT[ξIle]CNNWHDC[2Nal]P-NH2; disulfide 4-10) gave a Kd of 100 to 300 nM.
For CC[C@H](C)[C@H](NC(=O)[C@@H](NC(=O)[C@H](Cc1c[nH]c2ccccc12)NC(=O)CNC(=O)CNC(=O)CCC(=O)NCCCOCCOCCOCCCNC(=O)CN1CCN(CC(=O)O)CCN(CC(=O)O)CCN(CC(=O)O)CC1)[C@@H](C)O)C(=O)N[C@H]1CSSC[C@@H](C(=O)N[C@@H](Cc2c[nH]c3ccccc23)C(=O)N2CCC[C@H]2C(N)=O)NC(=O)[C@H](CC(=O)O)NC(=O)[C@H](Cc2c[nH]cn2)NC(=O)[C@H](Cc2c[nH]c3ccccc23)NC(=O)[C@H](CC(N)=O)NC(=O)[C@H](CC(N)=O)NC1=O [compound 21] ({X2-Suc}-GGWTICNNWHDCWP-NH2; disulfide 6-12), the Kd was 1 to 10 nM.
CC[C@H](C)[C@H](NC(=O)[C@@H](NC(=O)[C@H](Cc1c[nH]c2ccccc12)NC(=O)CCCCCNC(=O)CN1CCN(CC(=O)O)CCN(CC(=O)O)CCN(CC(=O)O)CC1)[C@@H](C)O)C(=O)N[C@H]1CSSC[C@@H](C(=O)N[C@@H](Cc2c[nH]c3ccccc23)C(=O)N2C[C@@H](F)C[C@H]2C(N)=O)NC(=O)[C@H](CC(=O)O)NC(=O)[C@H](Cc2cnc[nH]2)NC(=O)[C@H](Cc2c[nH]c3ccccc23)NC(=O)[C@H](CC(N)=O)NC(=O)[C@H](CC(N)=O)NC1=O [compound 67, DOTA-Ahx-W-T-I-C(3)-N-N-W-H-D-C(3)-W-(Cis4Fluoro-P)-CONH2] ({DOTA-Ahx}-WTICNNWHDCW[Pro(cis-4-F)]-NH2; disulfide 4-10) gave a Kd of 100 to 300 nM.
